Experimental data as given in US9365830B2, “Agents and methods for inhibiting human pluripotent stem cell growth” (VIACYTE, INC., priority 2010, dated 2016).

What was measured:
[1] = test system: undifferentiated hESCs growing in adherent culture; assay: EC50 of cytotoxic effect on undifferentiated hESCs in adherent culture, real-time impedance assay; format: cell-based, human; conditions: undifferentiated hESCs, adherent culture, real-time impedance; read-out: EC50 concentrations for hES cells (cytotoxic effect)
Description: In summary, the final three (3) candidates identified from both the primary and secondary screens (EXAMPLE 1) and the full screen of the LOPAC1280™ collection (EXAMPLE 2) were Chelerythrine Chloride, Caffeic acid and Ivermectin. FIG. 11 lists the known or inferred mode(s) of action for these three compounds, as well as their structures. EC50 values for the respective cytotoxic effects on undifferentiated hESCs growing in adherent culture were determined using real-time impedance assays.
Depletion of OCT4-positive cells during Stage 1 differentiation was examined using the plating assay described above. Stage 1 differentiations of hES cells were treated from day 1 to 2 with the candidate compounds as described in Example 2 (chelerythrine chloride, caffeic acid and Ivermectin), at their EC50 concentrations for hES cells. Plated untreated and DMSO-treated aggregates were indistinguishable, and both contained discrete clusters of OCT4-positive cells. See FIG. 13A top and bottom panels for a DMSO treated example. The intensity of OCT4-positive staining in differentiating aggregate cell cultures treated with DMSO (control) was equivalent to undifferentiated hES cells.

[2] = test system: pancreatic endoderm differentiations of hESCs; assay: Suspension aggregate differentiation to pancreatic endoderm after Stage 1 treatment, Q-PCR; format: cell-based, human; conditions: Stage 1 cultures treated with 0.1 μM Caffeic acid or 0.17 μM Ivermectin
Description: FIGS. 10A-10I are bar graphs showing the relative gene expression levels of OCT4 (FIG. 10A), MIXL (FIG. 10B), HNF1B (FIG. 10C), HNF4A (FIG. 10D), PAX4 (FIG. 10E), NGN3 (FIG. 10F), NKX2.2 (FIG. 10G), NKX6.1 (FIG. 10H), and PTF1A (FIG. 10I) after treatment of suspension aggregate cell cultures at Stages 1 with DMSO (Control), 0.1 μM Caffeic acid or 0.17 μM Ivermectin agents. Untreated control samples were collected at d0 and d1 (left panel). Treated samples were collected at d2, d3, d5, d7, d9, d11, and d13. The columns for each day of the treated samples are (from left to right): DMSO, Caffeic acid, and Ivermectin. The cultures were differentiated to the end of Stage 4. The results from an untreated, pancreatic endoderm differentiation are shown on the right, with samples collected on days 0, 1, 2, 5, 8, 10 and 14.
To further determine the effects of the above compounds (excluding those compounds that induced off-target differentiation), three selected compounds (chelerythrine chloride (FIGS. 5 & 6), caffeic acid and Ivermectin) were screened for effects on later stages of pancreatic differentiation, (such as Stages 2-5). Human ESCs were first differentiated through Stage 1 then to Stages 2 to 5 in suspension aggregate cultures similar to that above. Stage 1 cultures were treated with DMSO, caffeic acid or Ivermectin substantially as described above. Untreated control samples were collected at d0 (hESC) and d1 (FIG. 10, left panel), while treated samples were collected at days 2, 3, 5, 7, 9, 11 and 13 (FIG. 10 d2, d3, d5, d7, d9, d11 and d13 respectively). Gene expression levels in the collected samples were analyzed using Q-PCR and compared to the d0 (hESC) sample as well as qualified pancreatic endoderm (FIG. 10, right panel). The qualified pancreatic endoderm control consisted of about 50% pancreatic endoderm, about 46% endocrine cells and about 4% “other” cells as determined by flow cytometry. Neither caffeic acid nor Ivermectin affected survival, growth and/or proliferation of pancreatic endoderm differentiations. […] Typical gene expression levels for Stages 3, 4 and 5 cells were normal; for example, increased expression of NKX6.1 and PTF1A at Stage 4, pancreatic endoderm (FIGS. 10H and 10I), and of NGN3 and NKX2.2 at Stage 5, endocrine precursor and endocrine cells (FIGS. 10 F and 10G) was observed.

hESCs (BG02) = assay: Real-time impedance assay (RT-CES) for inhibitory and cytotoxic agents on hESCs; conditions: 10 μM compound added after about 24 hours, cultured about 5 more days; compared to DMSO control
Source text: The foregoing 176 selected compounds from the complete LOPAC1280™ library were then used to screen human pluripotent stem cells, e.g., hESCs, and differentiating cultures during Stage 1 (definitive endoderm) using a real-time impedance assay (ACEA biosciences RT-CES system). The RT-CES system uses 96-well trays that contain embedded microsensors to monitor changes in electrical impedance, which is translated into a measure of cell index. Any overt alteration within a cell culture can be detected, including but not limited to cell proliferation, migration, cell spreading, apoptosis, differentiation and the like. […] An increase in the cell index indicates proliferation of the cells, for example, proliferation of the undifferentiated cells. […] See also FIG. 1. […] A “scallop” cell index is one which remains high due to a confluent culture of cells, but will go down and up (scallop) between daily feedings. Conversely, cells undergoing differentiation have distinctive patterns, such as peaks and troughs in the cell index, potentially indicative of an epithelial-to-mesenchymal transition, flattening, cell migration, apoptosis or similar differentiation and growth related changes.
Impedance Assay for Inhibitory and Cytotoxic Agents. Human pluripotent stem cells, e.g., 2×10^4 hESCs (BG02), were cultured in DC-HAIF, a heregulin-based defined media, with daily feeding in the impedance monitoring plates. After about 24 hours, and 10 μM of the selected LOPAC1280™ compound was added to each well (see arrowhead in FIGS. 3 A & B) and cultured for about an additional 5 days.

Compound	EC50 [1] [µM]	Typical gene expression levels for Stages 3, 4 and 5 cells (NKX6.1, PTF1A, NGN3, NKX2.2) ([2]; Q-PCR d2-d13)	survival, growth and/or proliferation of pancreatic endoderm differentiations (pancreatic endoderm viability) ([2]; differentiated to end of Stage 4)	cell index (impedance); inhibitory or cytotoxic effect on the hESCs (hESCs (BG02))
22, 23-dihydroavermectin B1a+22,23-dihydroavermectin B1b [Ivermectin]	0.17	normal	did not affect pancreatic endoderm viability	–
CN(N=O)c1cc(O)ccc1O [Dephostatin]	–	–	–	significant decrease
N#C/C(=C\c1ccc(O)c(O)c1)C(=O)NCc1ccccc1 [Tyrphostin AG 490]	–	–	–	significant decrease
